Data as given in article PMC5607274, “An iterative compound screening contest method for identifying target protein inhibitors using the tyrosine-protein kinase Yes” (Scientific Reports, 2017).

molecular target: T1, human recombinant Yes [a.a. 2–543 (end)] (Homo sapiens, UniProt P07947); assay: ADP-Glo kinase assay, inhibition rates of Yes phosphorylation activity (first and second screening); type: biochemical; conditions: first screening; mean of n = 4 wells; 10 μmol L−1 compound
T1 construct: human recombinant Yes [a.a; 2–543 (end)]; purchased BPS Bioscience 40488
T1 sequence (P07947 2-543): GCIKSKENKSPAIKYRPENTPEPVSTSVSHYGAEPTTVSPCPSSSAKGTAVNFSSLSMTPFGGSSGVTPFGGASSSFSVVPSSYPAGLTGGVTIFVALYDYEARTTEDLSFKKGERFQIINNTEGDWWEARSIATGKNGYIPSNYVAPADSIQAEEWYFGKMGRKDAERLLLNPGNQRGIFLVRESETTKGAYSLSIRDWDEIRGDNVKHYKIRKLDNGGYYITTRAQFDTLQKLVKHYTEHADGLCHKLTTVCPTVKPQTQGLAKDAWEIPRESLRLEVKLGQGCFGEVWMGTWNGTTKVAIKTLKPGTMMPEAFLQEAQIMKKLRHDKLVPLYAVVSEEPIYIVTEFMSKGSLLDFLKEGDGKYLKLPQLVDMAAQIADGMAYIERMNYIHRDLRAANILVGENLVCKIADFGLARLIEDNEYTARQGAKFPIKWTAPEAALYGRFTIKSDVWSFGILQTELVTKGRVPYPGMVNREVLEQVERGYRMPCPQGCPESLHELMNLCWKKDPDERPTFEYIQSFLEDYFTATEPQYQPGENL
In short: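 ADP-Glo luminescence measured inhibition of human recombinant Yes (a.a. 2–543) phosphorylation activity. In the first screen, each compound ran in 4 wells and inhibition rates were averaged. The second screen retested hits as compounds dissolved from fresh powder.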

| SMILES | First screening IR (inhibition rate) [%] |
| --- | --- |
| COC(=O)Cn1ncc2c(N3CCCCC3CCC(C)C)ncnc21 (stereo not drawn) [Compound Z1419966801] | 1 |
| CCc1ccc(CNc2cccc(NC(=O)OCCOC)c2)o1 [Compound Z1420504830] | -7 |
| CCn1nc(NCc2cn[nH]c2-c2ccc(C)o2)cc1C1CC1 [Compound Z1421828757] | 13 |
| O=C(Nc1cc(-c2cccc(F)c2F)[nH]n1)c1ccc2nncn2c1 [Compound Z1423687928] | 11 |
| c1ccc(-c2cn(Cc3nc(-c4cccs4)no3)nn2)cc1 [Compound Z1425793872] | 13 |
| Cc1ccc(CNC(C)(CO)c2cccc(C(F)(F)F)c2)nc1 (stereo not drawn) [Compound Z1426135114] | 10 |
| O=C(Nc1n[nH]c(-c2ccoc2)n1)c1cc(-c2ccc(F)cc2)on1 [Compound Z1426521974] | 4 |
| Cc1cc(NCc2cn3cccnc3n2)c(C(N)=O)cc1F [Compound Z1430011273] | 12 |
| Cc1cnn(-c2cccc(N3CCOC(c4ccc(F)cc4)C3)n2)c1 (stereo not drawn) [Compound Z1430532131] | 0 |
| CC(C)c1nncn1CCNC(=O)C(c1cc(Cl)cc(Cl)c1)N(C)C (stereo not drawn) [Compound Z1430823330] | 5 |
| O=C(c1cc(C2CC2)[nH]n1)N1CCC(=Cc2cc(Cl)ccc2Cl)CC1 [Compound Z1432870591] | 2 |
| Cn1nc(C2CCC2)cc1NC(=O)c1cc(Br)cnc1Cl [Compound Z1433129748] | 0 |
| Clc1ccc(C2=NN/C(=N/c3ccccn3)SC2)s1 [Compound Z1446648080] | 8 |
| NC(=O)c1cc(NC(=O)c2cccnc2Nc2cccc(F)c2)n[nH]1 [Compound Z1451063255] | 2 |
| CNC1CCN(C(=O)c2ccc3c(c2)ncn3C(C)C)C1.Cl.Cl (stereo not drawn) [Compound Z1455845707] | 13 |
| Cl.O=C(NCCC1CCCNC1)c1c(F)cccc1Br (stereo not drawn) [Compound Z1457134316] | -2 |
| CN1CCN(C(=O)c2ccc(-c3cc(F)c(F)c(F)c3)cc2)C(CN)C1.Cl (stereo not drawn) [Compound Z1457890473] | 13 |
| Cc1ccn2c(CNc3cc(C(N)=O)cc(F)c3C)cnc2c1 [Compound Z1462541066] | 33 |
| Fc1cc(NCc2cn[nH]c2-c2cccnc2)ccc1-n1ccnc1 [Compound Z1462562385] | 10 |
| CN(C)C(=O)Cc1ccccc1NCc1ccc(-n2ccnc2)cc1 [Compound Z1462566317] | 13 |
| O=C(OCCc1cn[nH]c1)c1ncoc1-c1ccco1 [Compound Z1463415737] | 57 |
| Cc1nc(C2CCCN(C(=O)c3cncc(-c4ccc5c(c4)CCO5)c3)C2)n[nH]1 (stereo not drawn) [Compound Z1464424071] | -4 |
| COC(=O)c1cnc(N2CCCCC2)cc1N1CCCCC1 [Compound Z1465442209] | 0 |
| N#CCCN(CCN1CCOCC1)Cc1cn[nH]c1-c1c(F)cccc1F [Compound Z1470747510] | -6 |

| SMILES | First screening IR (inhibition rate) [%] |
| --- | --- |
| CCN(C(=O)c1ccc2c(c1)CC(c1ccccc1)OC2=O)c1ncc[nH]1 (stereo not drawn) [Compound Z1474089033] | -8 |
| COc1ccc2[nH]c(C)c(C(=O)NCC(C)(C)c3cccc(F)c3)c2c1 [Compound Z1482480186] | 70 |
| CC1CCN(Cc2ncc(-c3cccc(Cl)c3)o2)CC1n1ccnc1 (stereo not drawn) [Compound Z1492998619] | 33 |
| CC1c2cc(Cl)cc(Cl)c2CCN1C(=O)c1cnc2n1CCCC2 (stereo not drawn) [Compound Z1494913871] | 13 |
| CC1CCN(C(=O)c2nc3ncc(Br)cn3n2)CC(C)C1 (stereo not drawn) [Compound Z1500127626] | 1 |
| CN(C)C(C)(C)CNC(=O)Cc1c[nH]c2cccc(Br)c12 [Compound Z1509620411] | -4 |
| CC(C)c1cc(C(=O)N(C)C2CCCCC2N(C)C(=O)c2cc(C(C)C)[nH]n2)n[nH]1 (stereo not drawn) [Compound Z1511609753] | 5 |
| Cc1nccn1-c1cncc(NCCOCCS(C)(=O)=O)n1 [Compound Z1513517715] | 17 |
| Cc1cnc(COC(=O)c2cc(-c3ccccn3)ccc2Cl)cn1 [Compound Z1514764424] | -4 |
| CC(=O)c1cccc(COC(=O)c2n[nH]c3c2CCCC3)c1 [Compound Z1515387931] | -3 |
| NS(=O)(=O)C1CC=CCC1 (stereo not drawn) [Compound Z1517090453] | 1 |
| Cc1c(/C=C2/C(=O)Nc3ccc(F)cc32)cnn1C [Compound Z1517268554] | 31 |
| COC(=O)Cn1ncc2c(N3CCCC34CCCCC4)ncnc21 [Compound Z1527076116] | -3 |
| Cn1nc(Br)c2c(N3CCCC34CCCCC4)ncnc21 [Compound Z1527076521] | 38 |
| CC(NCc1ccc(CN2CCN(C)CC2)cc1)c1cccc(CO)c1 (stereo not drawn) [Compound Z1532484795] | -4 |
| CCn1ncc2c(C(=O)NCC(C)(O)C(F)(F)F)cc(-c3cccs3)nc21 (stereo not drawn) [Compound Z1535762010] | -4 |
| Cc1nccn1-c1ccc(C(C)Nc2ncnc3nc(N)ccc23)cc1 (stereo not drawn) [Compound Z1537172697] | 53 |
| Cc1cccc(NC2CCN(C(=O)c3c[nH]c4cccc(F)c34)CC2)n1 [Compound Z1538193381] | 3 |
| O=S1(=O)CCC(CNS(=O)(=O)c2c[nH]c3nccc(Cl)c23)C1 (stereo not drawn) [Compound Z1547285504] | -14 |
| CCc1cc(N2CCC(NCc3c(Cl)cccc3N3CCCC3)CC2)ncn1 [Compound Z1549038619] | 0 |
| Cc1ccc(S(=O)(=O)C2CS(=O)(=O)CC2O)c(C)c1 (stereo not drawn) [Compound Z1549639934] | -1 |
| CC(C)c1cc(NS(=O)(=O)c2cc(F)c(Br)cc2F)n[nH]1 [Compound Z1551172092] | 5 |
| O=C1NCc2cccc(NS(=O)(=O)c3c(Cl)ccnc3Cl)c21 [Compound Z1556993367] | -3 |
| Cc1cc(N2CCN(C(=O)Nc3cc(C)c4cn[nH]c4c3)CC2)nc(C)n1 [Compound Z1557589830] | 42 |

| SMILES | First screening IR (inhibition rate) [%] |
| --- | --- |
| Cc1nc(CN)ccc1C(=O)Nc1ccc(Oc2ccc(Cl)cc2Cl)c(F)c1.Cl [Compound Z1561183584] | -5 |
| CC(C)(C)Oc1cccc(CN2CCC(c3c[nH]c4ncccc34)CC2)n1 [Compound Z1564730073] | 12 |
| CC1CN(C(=O)C2CCS(=O)(=O)C2)c2cc(F)ccc2CN1C(=O)OC(C)(C)C (stereo not drawn) [Compound Z1566941984] | -8 |
| CN(C)c1nccc(N2CCN(Cc3ccc(Cl)o3)CC2)n1 [Compound Z1569249080] | 27 |
| Cn1c(=O)c2ccc(C(=O)NCc3cc(Cl)ccn3)nc2n(C)c1=O [Compound Z1574547064] | -2 |
| CC(C)(C)c1ccc(NC(=O)/C=C/c2cncc(O)c2)cc1 [Compound Z1574815119] | 6 |
| Cc1ccc([N+](=O)[O-])c(N2CCC(NCCO)CC2)c1 [Compound Z1576995201] | -9 |
| Cc1nccn1-c1cncc(N2CCC3(CCCC3)CC2)n1 [Compound Z1578863056] | 34 |
| CC1CN(C(=O)OC(C)(C)C)C(C)CN1C(=O)Cc1csc(N2CCNC2=O)n1 (stereo not drawn) [Compound Z1579018538] | 2 |
| CC(NCc1ccnc(OC2CCOC2)c1)c1cccc(F)c1 (stereo not drawn) [Compound Z1583197068] | 21 |
| CCCn1nccc1NC(=O)CN(C)C(C)c1cccc(-c2ccncc2)c1 (stereo not drawn) [Compound Z1587266149] | 17 |
| Cc1n[nH]c(C)c1C1CCCCCN1C(=O)Nc1cnc(N(C)C)nc1 (stereo not drawn) [Compound Z1590996465] | -1 |
| Cc1cc(S(=O)(=O)N(C)CC(=O)N2CCC(O)CC2)cnc1Cl [Compound Z1591866613] | -1 |
| Cc1cc(C(NCC(=O)Nc2cccc(C(=O)N(C)C)c2)C(C)C)c(C)s1 (stereo not drawn) [Compound Z1592563027] | -2 |
| CC(CN(C)Cc1ccccc1)Nc1nc(N)c2ccccc2n1 (stereo not drawn) [Compound Z1593120476] | -10 |
| COCc1nnc(-c2cccc(-c3nc(-c4cccs4)no3)c2)o1 [Compound Z1601587562] | 11 |
| CC(O)(CNc1ccnc2c(F)cc(Br)cc12)CN1CCOCC1 (stereo not drawn) [Compound Z1601616896] | -21 |
| O=C(NCC(Cc1ccccc1)C(=O)O)c1ccc(-n2ccnc2)cc1 (stereo not drawn) [Compound Z1603513622] | 15 |
| CN(CCCc1nc2ccccc2[nH]1)C(=O)c1ccc(O)cc1F [Compound Z1614685203] | 9 |
| N#Cc1ccc(C(=O)OCc2ccc(Br)cn2)[nH]1 [Compound Z1616590793] | 9 |
| Cc1cc(NCc2nnc(C)n2C)c(C(N)=O)cc1F [Compound Z1618388683] | -35 |
| NC(=O)c1ccc2[nH]cc(C3CCN(C(=O)c4cccs4)CC3)c2c1 [Compound Z1624201749] | -35 |
| Cc1cc(N2CCCC(N3CCN(C(=O)c4ccncc4)CC3)C2=O)n(C)n1 (stereo not drawn) [Compound Z1629496420] | 17 |
| COc1cc(Br)c(CN(C)CCc2cnccn2)c(OC)c1 [Compound Z1632805805] | 7 |

same assay, conditions: second screening, dissolved from fresh powder; n = 4; 10 μmol L−1 compound

| SMILES | Second screening IR (inhibition rate) [%] |
| --- | --- |
| Cc1ccn2c(CNc3cc(C(N)=O)cc(F)c3C)cnc2c1 [Compound Z1462541066] | -26 |
| Cc1c(/C=C2/C(=O)Nc3ccc(F)cc32)cnn1C [Compound Z1517268554] | 16 |
| Cc1nccn1-c1cncc(N2CCC3(CCCC3)CC2)n1 [Compound Z1578863056] | 0 |
